Article PMC8041433 (Environmental Health Perspectives, 2021)
Several values for one entry are separate records, joined by “and”; a condition that tells them apart may be missing. Equal values may be shown once. Read-outs that look alike come from different tables or passages of the source.

Key:
[1] = target: AChE in neural stem cells (Homo sapiens, UniProt P22303); assay: cell-based
[2] = target: AChE in SH-SY5Y spheroids (Homo sapiens, UniProt P22303); assay: cell-based; settings: potency (IC50)
Sequence of AChE in SH-SY5Y spheroids (P22303 32-614): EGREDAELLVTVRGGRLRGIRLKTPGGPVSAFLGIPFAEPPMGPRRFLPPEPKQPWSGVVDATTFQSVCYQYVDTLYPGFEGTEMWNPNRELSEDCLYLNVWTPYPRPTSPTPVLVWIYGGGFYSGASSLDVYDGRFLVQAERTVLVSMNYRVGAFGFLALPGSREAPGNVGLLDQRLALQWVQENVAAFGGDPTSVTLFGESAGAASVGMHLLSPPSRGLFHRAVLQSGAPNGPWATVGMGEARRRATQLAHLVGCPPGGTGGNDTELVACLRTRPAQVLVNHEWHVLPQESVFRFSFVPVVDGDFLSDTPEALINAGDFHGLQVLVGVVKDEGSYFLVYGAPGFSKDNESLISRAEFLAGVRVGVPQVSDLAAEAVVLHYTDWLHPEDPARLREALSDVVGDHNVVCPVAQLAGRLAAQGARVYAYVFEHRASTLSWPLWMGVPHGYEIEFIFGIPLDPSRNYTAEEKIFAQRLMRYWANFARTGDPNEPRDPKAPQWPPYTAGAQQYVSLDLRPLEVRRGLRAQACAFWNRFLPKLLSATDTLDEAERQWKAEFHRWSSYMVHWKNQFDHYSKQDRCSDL

[3] = target: AChE in neural stem cell spheroids (Homo sapiens, UniProt P22303); assay: cell-based; settings: for IC50: potency (IC50)
Sequence of AChE in neural stem cell spheroids (P22303 32-614): as above

recombinant human AChE [4] = target: T1, recombinant human AChE (Homo sapiens, UniProt P22303); assay: biochemical
T1 sequence (P22303 32-614): as above

recombinant human AChE [5] = target: T1, recombinant human AChE
recombinant human AChE [6] = target: T1, recombinant human AChE; assay: biochemical; remark: listed apart in the source
AChE in SH-SY5Y cells = AChE in SH-SY5Y cells (Homo sapiens, UniProt P22303); assay: cell-based
Sequence of AChE in SH-SY5Y cells (P22303 32-614): as above

recombinant human AChE [7] = target: T1, recombinant human AChE; assay: biochemical; remark: listed apart in the source
recombinant human AChE [8] = target: T1, recombinant human AChE; assay: biochemical; format: biochemical; settings: for AC50: AC50 (uM)
[9] = Neural stem cell spheroid (24 h)
[10] = Neural stem cell spheroid (48 h)
[11] = potency (IC50), Enzyme with microsomes
[12] = potency (IC50), SH-SY5Y cells monolayer
For IR or R in this document: key: Reversible (R); Irreversible (IR); ND, not detected in enzyme-based AChE inhibition assay from current study.

Sequence of AChE in neural stem cells (P22303 32-614): as above

Compound	IC50 [1]	IC50 ([2]; SH-SY5Y spheroids (24 h))	IC50 ([2]; SH-SY5Y spheroids (48 h))	IC50 [3, 9]	IC50 [3, 10]	IC50 (recombinant human AChE [4])	CC-v2 (curve classes) (recombinant human AChE [5])	IC50 (recombinant human AChE [6]; [11])	CC-v2 (curve classes) (AChE in SH-SY5Y cells)	IC50 (AChE in SH-SY5Y cells; IC50 (uM))	IC50 (AChE in SH-SY5Y cells; [12])	CC-v2 (curve classes) (recombinant human AChE [7])	IC50 (recombinant human AChE [7]; potency (IC50), Enzyme)	IR or R (recombinant human AChE [8])	AC50 (recombinant human AChE [8]; activity_60)	Efficacy (recombinant human AChE [5])	Efficacy (recombinant human AChE [7])	AC50 (recombinant human AChE [8])	also measured
CNC(=O)Oc1ccccc1OC(C)C [Propoxur]	17 ± 1.1 µM	3.55 ± 2.59 µM	2.45 ± 0.61 µM	20.1 ± 4.2 µM	35.8 µM	1.91 ± 0.12 µM	-1.1	1.76 µM	-1.1	2.24 µM and 2 µM (2×) and 1.59 µM and 1.78 µM	3.05 ± 0.52 µM	-1.1	1.55 ± 0.43 µM	R	1.77 µM and 1.11 µM and 2.5 µM				AC50 (recombinant human AChE [8]; activity_5): 22.2 µM and 14 µM and 6.27 µM; AC50 (recombinant human AChE [8]; activity_10): 4.98 µM and 14 µM and 7.03 µM
CNC(=C[N+](=O)[O-])NCCSCc1csc(CN(C)C)n1 [Nizatidine, reference compound]	18.6 ± 1.21 µM	7.05 ± 1.96 µM	12.2 ± 1.41 µM			15.6 ± 3.57 µM	4	20.1 ± 1.36 µM	-1.1 and -2.1	14.2 µM and 12.6 µM and 12.3 µM and 13.8 µM and 11.2 µM	7.68 µM	-2.1	10.5 ± 0.68 µM	R	27.3 µM and 19.3 µM and 24.3 µM				potency (IC50), Neural stem cell spheroid (24 h) [3]: Inactive; IC50 (recombinant human AChE [7]; IC50 (uM)): 35.6 µM and 27.5 µM; AC50 (recombinant human AChE [8]; activity_5): 24.3 µM and 27.3 µM and 6.85 µM; AC50 (recombinant human AChE [8]; activity_10): 21.7 µM and 27.3 µM and 30.6 µM
CCOP(=S)(OCC)OP(=S)(OCC)OCC [Sulfotepp]	1.25 ± 0.14 µM	15.3 ± 7.82 µM	4.12 ± 0.28 µM	0.06 ± 0.01 µM	0.1 ± 0.02 µM	44.4 µM	-1.1	7.89 µM	-1.1	5.02 µM and 8.18 µM and 2.52 µM and 5.16 µM and 2.24 µM and 2.59 µM	0.96 ± 0.13 µM	-2.1	9.97 ± 1.14 µM		55.9 µM and 70.3 µM				
CCOP(=S)(OCC)Oc1cc(-c2ccccc2)on1 [Isoxathion]	6.1 µM	27 µM	17.7 µM	0.73 µM	1.68 µM	85.3 ± 5.56 µM	-1.1	2.11 µM	-2.1	63.3 µM and 79.6 µM	17 µM	-3	44.4 µM			-99.076	-107.392	55.9 µM (2×) and 49.8 µM (3×) and 44.4 µM (2×)	
CNC(=O)Oc1cccc2c1OC(C)(C)O2 [Bendiocarb]	46.2 ± 3.12 µM	44.7 ± 19.4 µM	54.1 ± 7.44 µM	45.2 ± 10.3 µM	47.1 µM	0.92 ± 0.06 µM	-1.1	0.88 µM	-1.1		1.07 ± 0.06 µM	-1.1	0.51 ± 0.03 µM	R				70.3 µM (2×) and 78.9 µM and 88.5 µM (2×) and 55.9 µM and 62.7 µM	
CCCCN(CCCC)SN(C)C(=O)Oc1cccc2c1OC(C)(C)C2 [Carbosulfan]	10.9 µM	0.46 µM	0.68 µM	5.25 µM	8.89 µM	1.36 ± 0.19 µM	-1.1	0.44 µM	-1.1	0.159 µM and 0.809 µM and 0.126 µM and 1.14 µM and 0.224 µM and 0.573 µM	3.23 µM	-1.1	1.67 µM	R				993 nM (3×) and 1.11 µM and 885 nM	IC50 (recombinant human AChE [6]; IC50 (uM)): 3.56 µM and 0.573 µM
CCOC(=O)C(SP(=S)(OC)OC)c1ccccc1 (stereo not drawn) [Phenthoate]	33.2 ± 15.3 µM	1.01 ± 1.29 µM	20.4 ± 5.69 µM	26.5 ± 11.5 µM	8.66 µM	38.1 ± 2.48 µM	-3	29.1 ± 1.97 µM	-1.1 and -2.1	31.7 µM and 22.4 µM and 25.2 µM	12.6 ± 1.44 µM	-2.2	25.1 ± 2.88 µM		39.5 µM and 28 µM and 31.4 µM	-48.701	-77.281		IC50 (recombinant human AChE [6]; IC50 (uM)): 79.6 µM; IC50 (recombinant human AChE [7]; IC50 (uM)): 71 µM; AC50 (recombinant human AChE [8]; activity_5): 44.4 µM; AC50 (recombinant human AChE [8]; activity_10): 49.8 µM and 39.5 µM
CCOC(=O)c1cn2nc(OP(=S)(OCC)OCC)cc2nc1C [Pyrazophos]	16.4 µM	29.7 µM	46.2 µM	2.46 µM	4.46 µM	85.3 ± 5.56 µM	-1.1	7.89 µM	-2.1	35.6 µM and 71 µM and 79.6 µM	46.2 µM	-3	49.8 µM		55.9 µM and 62.7 µM	-98.116	-45.459		
CCCSP(=O)(OCC)Oc1ccc(Br)cc1Cl (stereo not drawn) [Profenofos]	1.05 ± 0.14 µM	2.57 ± 2.21 µM	2.89 ± 0.65 µM	0.2 ± 0.09 µM	0.78 µM	5.25 ± 0.34 µM	-1.1	3.43 µM	-1.1	6.88 µM and 5.46 µM and 7.72 µM	3.71 ± 0.24 µM	-1.1	3.85 µM		6.85 µM and 7.69 µM and 13.7 µM	-79.632	-92.505		IC50 (recombinant human AChE [6]; IC50 (uM)): 2.74 µM; IC50 (recombinant human AChE [7]; IC50 (uM)): 3.87 µM; AC50 (recombinant human AChE [8]; activity_5): 10.9 µM and 17.2 µM and 15.3 µM; AC50 (recombinant human AChE [8]; activity_10): 12.2 µM and 15.3 µM
CCOP(=S)(OCC)SC(CCl)N1C(=O)c2ccccc2C1=O (stereo not drawn) [Dialifor]	15.2 µM	25.7 µM	15.7 µM	9.74 µM	20.1 µM	28.1 ± 3.23 µM	-1.1	2.69 µM	-2.1	31.7 µM	14.6 µM	-2.1	41.1 µM			-102.338	-100.017		reversibility of AChE inhibition (result in words) (recombinant human AChE [8]): irreversibility
CNC(=O)Oc1ccccc1C(C)C [Isoprocarb]	21 ± 9.16 µM	5.45 ± 4.07 µM	12.5 µM		39.6 µM	9.21 ± 0.62 µM	-2.1	8.53 ± 0.55 µM	-1.1	3.56 µM and 4.48 µM	8.21 ± 0.55 µM	-1.1	6.55 ± 0.83 µM	R		-88.562	-91.575	9.93 µM and 14 µM and 17.7 µM and 22.2 µM and 12.5 µM and 4.98 µM and 3.95 µM and 5.59 µM	potency (IC50), Neural stem cell spheroid (24 h) [3]: Inactive
Cc1cc(OC(=O)N(C)C)nn1C(=O)N(C)C [Dimetilan]	4.45 ± 0.51 µM	15.8 ± 16.9 µM	7.03 µM	1.53 ± 0.26 µM	3.12 ± 1.72 µM	11.6 ± 1.49 µM	-2.1	9.97 ± 1.14 µM	-1.1	7.1 µM	6.89 ± 3.77 µM	-1.1	16 ± 3.66 µM	R		-61.098	-84.168	49.8 µM (2×) and 31.4 µM and 19.8 µM (2×) and 55.9 µM and 12.5 µM and 5.59 µM and 14 µM	
CNC(=O)ON=C(CSC)C(C)(C)C [Thiofanox]	4.83 ± 0.82 µM	6.89 ± 6.18 µM	3.46 ± 0.86 µM	2.83 ± 0.59 µM	3.64 µM	3.18 ± 0.59 µM	-1.1	2.59 ± 0.17 µM	-1.1	1.59 µM and 1.78 µM	3.04 ± 0.41 µM	-1.1	1.91 ± 0.26 µM			-91.728	-92.082	2.8 µM and 4.44 µM and 4.98 µM and 3.95 µM and 2.22 µM and 1.4 µM and 1.98 µM	
CCOP(=O)(Sc1ccccc1)Sc1ccccc1 [Edifenphos]	1.31 ± 0.23 µM	4.79 ± 1.57 µM	2.08 ± 0.37 µM	0.88 ± 0.1 µM	1.21 ± 0.17 µM	3.03 ± 0.2 µM	-3	7.31 ± 0.49 µM	-1.1	3.99 µM and 3.17 µM and 5.02 µM	1.73 ± 0.43 µM	-2.1	4.79 ± 0.31 µM			-113.282	-122.577	28 µM and 62.7 µM and 31.4 µM (2×) and 25 µM and 49.8 µM and 35.2 µM	
Cc1c(Cl)c(=O)oc2cc(OP(=O)(OCCCl)OCCCl)ccc12 [Haloxon]	0.39 µM	0.88 ± 0.64 µM	1.12 ± 0.13 µM	0.2 ± 0.17 µM	0.18 ± 0.05 µM	1.35 ± 0.09 µM	-1.1	2.81 ± 0.32 µM	-1.1	3.89 µM and 4.36 µM and 3.09 µM	1.51 ± 0.09 µM	-1.1	0.63 ± 0.11 µM			-94.886	-92.736	1.4 µM and 1.57 µM (2×) and 1.11 µM (2×) and 1.25 µM and 885 nM and 993 nM	
CCOC(=O)CCN(SN(C)C(=O)Oc1cccc2c1OC(C)(C)C2)C(C)C [Benfuracarb]	7.67 µM	1.76 µM	0.84 µM	12.1 µM	12.6 µM	1.85 ± 0.24 µM	-1.1	1.4 µM	-1.1	0.252 µM and 0.356 µM and 0.0448 µM	1.25 µM	-1.1	4.97 µM			-96.321	-95.401	0.885 µM and 0.703 µM and 0.789 µM and 1.25 µM and 0.993 µM and 0.627 µM and 0.444 µM and 0.314 µM and 0.498 µM	
